# Experimental data as given in PubChem BioAssay AID1963984 (Molecular Pharmacology Branch, DTP, NCI, 2024).
# Tested on: 233499-124-R-J3-PDC spheroids with HUVEC/MSC, viability
# Assay: Anticancer human tumor 233499-124-R-J3-PDC patient-derived colon adenocarcinoma cell line growth inhibition [PI3K]
# Settings: for viability, T/C: stronger effect = lower value
# Source text: Combinatorial screen of targeted agents with the PI3K inhibitors inavolisib, alpelisib, duvelisib, and copanlisib in multi-cell type tumor spheroids
# A high-throughput screen of multi-cell type tumor spheroids was designed to identify active combinations of targeted small molecules and PI3K pathway inhibitors. Complex spheroids include a stromal component modeled by human endothelial cells (HUVEC) and fibroblasts modeled by human mesenchymal stem cells (MSCs). The concentration ranges selected for each drug and investigational agent were based upon clinically achievable concentrations if the clinical Cmax of the agent was known.
# Compounds. The drugs and investigational agents: inavolisib (NSC800729), alpelisib (NSC765974), duvelisib (NSC772469), copanlisib (NSC816437), ipatasertib (NSC767898), afuresertib (NSC778305), talazoparib (NSC767125), sapanisertib (NSC764658), selumetinib (NSC741078), tovorafenib (DAY101, NSC766906), vemurafenib (NSC761431), ravoxertinib (NSC781343), sotorasib (NSC818433), MRTX1133 (NSC 836407), abemaciclib (NSC 768073), palbociclib (NSC758247), venetoclax (NSC 766270), SY5609 (NSC837396), enzalutamide (NSC755605), and darolutamide (NSC825331), were obtained from the National Cancer Institute (NCI) Developmental Therapeutics Program Chemical Repository. The FDA-approved anticancer drug set is available from the NCI Developmental Therapeutics Program. […] The stock solutions were prepared in dimethyl sulfoxide (DMSO, Sigma-Aldrich, St. Louis, MO, cat. D2650) at 800-fold the tested concentration and stored at -70 degrees C prior to their use. All drugs and investigational agents were tested over a range starting from a high concentration at or near the clinical Cmax and decreasing in half-log increments. If the clinical Cmax for an agent had not been determined, the highest concentration tested was 10 microM.
# Cell Culture. All cells were maintained in an incubator at 37 degrees C and 5% CO2 with 95% humidity. The PDC lines were cultured according to standard operating procedures established by the NCI PDMR (https://pdmr.cancer.gov/sops/default.htm). All PDCs were thawed and cultured in Matrigel-coated flasks prepared with a working solution of 1X Ham's F-12 nutrient mix, without supplementation (Invitrogen, Waltham, MA, cat. 11765054), 100 U/mL penicillin-streptomycin (Invitrogen, cat. 15140122), and 2.5% Matrigel (Corning Inc., Corning, NY, cat. 354248) for the first three passages. The 354836-022-R-J1-PDC, 475296-252-R-J1-PDC, and 997726-040-R-J2-PDC lines were cultured in 6A media, which includes advanced DMEM/F-12 (Thermo Fisher Scientific, cat. 12634028), 10 mM HEPES (Thermo Fisher Scientific, cat. 15630080), 1X GlutaMAX supplement (Thermo Fisher Scientific, cat. 35050061), 0.1 mg/mL primocin (InvivoGen, San Diego, CA, cat. ant-pm-2), 10% defined fetal bovine serum, heat inactivated (HyClone Laboratories Inc., Logan, UT, cat. SH30070.03HI), 50% L-WRN conditioned media (ATCC, cat. CRL-3276), 1.25 mM N-Acetyl-L-cysteine (Sigma-Aldrich, cat. A9165), 10 mM nicotinamide (Sigma-Aldrich, cat. N0636), 1X B-27 supplement (Thermo Fisher Scientific, cat. 17504044), 1X N-2 supplement (Thermo Fisher Scientific, cat. 17502048), and 10 microM Y-27632 dihydrochloride (Tocris Bioscience, Bristol, United Kingdom, cat. 1254). The 624824-186-R-J2-PDC line was cultured in 6C/Colon 1B media, which includes all 6A media components plus 50 ng/mL human EGF recombinant protein (Thermo Fisher Scientific, cat. PHG0311). […]
# [1] = curve of first compound, second compound 0.00316 µM
# [2] = curve of first compound, second compound 0.01 µM
# [3] = curve of first compound, second compound 0.0316 µM
# [4] = curve of first compound, second compound 0.1 µM
# [5] = curve of first compound, second compound 0.316 µM
# [6] = curve of first compound, second compound 1 µM
# [7] = second compound 0.00316 µM, first compound 0.000316 µM
# [8] = second compound 0.00316 µM, first compound 0.001 µM
# [9] = second compound 0.00316 µM, first compound 0.00316 µM
# [10] = second compound 0.00316 µM, first compound 0.01 µM
# [11] = second compound 0.00316 µM, first compound 0.0316 µM
# [12] = second compound 0.00316 µM, first compound 0.1 µM
# [13] = second compound 0.01 µM, first compound 0.000316 µM
# [14] = second compound 0.01 µM, first compound 0.001 µM
# [15] = second compound 0.01 µM, first compound 0.00316 µM
# [16] = second compound 0.01 µM, first compound 0.01 µM
# [17] = second compound 0.01 µM, first compound 0.0316 µM
# [18] = second compound 0.01 µM, first compound 0.1 µM
# [19] = second compound 0.0316 µM, first compound 0.000316 µM
# [20] = second compound 0.0316 µM, first compound 0.001 µM
# [21] = second compound 0.0316 µM, first compound 0.00316 µM
# [22] = second compound 0.0316 µM, first compound 0.01 µM
# [23] = second compound 0.0316 µM, first compound 0.0316 µM
# [24] = second compound 0.0316 µM, first compound 0.1 µM
# [25] = second compound 0.1 µM, first compound 0.000316 µM
# [26] = second compound 0.1 µM, first compound 0.001 µM
# [27] = second compound 0.1 µM, first compound 0.00316 µM
# [28] = second compound 0.1 µM, first compound 0.01 µM
# [29] = second compound 0.1 µM, first compound 0.0316 µM
# [30] = second compound 0.1 µM, first compound 0.1 µM
# [31] = second compound 0.316 µM, first compound 0.000316 µM
# [32] = second compound 0.316 µM, first compound 0.001 µM
# [33] = second compound 0.316 µM, first compound 0.00316 µM
# [34] = second compound 0.316 µM, first compound 0.01 µM
# [35] = second compound 0.316 µM, first compound 0.0316 µM
# [36] = second compound 0.316 µM, first compound 0.1 µM
# [37] = second compound 1 µM, first compound 0.000316 µM
# [38] = second compound 1 µM, first compound 0.001 µM
# [39] = second compound 1 µM, first compound 0.00316 µM
# [40] = second compound 1 µM, first compound 0.01 µM
# [41] = second compound 1 µM, first compound 0.0316 µM
# [42] = second compound 1 µM, first compound 0.1 µM
# 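Further: spheroids exposed to agents for seven days before readout.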
# 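Wherever viability, T/C is given: percent viability relative to DMSO vehicle control taken as 100%.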
smiles,measurement,setting,value
Cn1ncnc1[C@H]1c2n[nH]c(=O)c3cc(F)cc(c23)N[C@@H]1c1ccc(F)cc1 + CC(Nc1ccc2c(c1)OCCn1cc(N3C(=O)OCC3C(F)F)nc1-2)C(N)=O,IC50,[1],> 0.1 µM
same,IC50,[2],0.0966 µM
same,IC50,[3],> 0.1 µM
same,IC50,[4],> 0.1 µM
same,IC50,[5],> 0.1 µM
same,IC50,[6],0.0269 µM
same,"viability, T/C",[7],86.6%
same,"viability, T/C",[8],109%
same,"viability, T/C",[9],70%
same,"viability, T/C",[10],105%
same,"viability, T/C",[11],84.3%
same,"viability, T/C",[12],63.4%
same,"viability, T/C",[13],77.7%
same,"viability, T/C",[14],111%
same,"viability, T/C",[15],88.3%
same,"viability, T/C",[16],92.1%
same,"viability, T/C",[17],97%
same,"viability, T/C",[18],48.7%
same,"viability, T/C",[19],92.6%
same,"viability, T/C",[20],81.9%
same,"viability, T/C",[21],63.6%
same,"viability, T/C",[22],73.4%
same,"viability, T/C",[23],83.8%
same,"viability, T/C",[24],61.7%
same,"viability, T/C",[25],97.5%
same,"viability, T/C",[26],92.3%
same,"viability, T/C",[27],83.3%
same,"viability, T/C",[28],72.8%
same,"viability, T/C",[29],87.9%
same,"viability, T/C",[30],66.3%
same,"viability, T/C",[31],71.9%
same,"viability, T/C",[32],94.2%
same,"viability, T/C",[33],75%
same,"viability, T/C",[34],70.8%
same,"viability, T/C",[35],60.2%
same,"viability, T/C",[36],58.3%
same,"viability, T/C",[37],72.2%
same,"viability, T/C",[38],58.1%
same,"viability, T/C",[39],58.3%
same,"viability, T/C",[40],58.2%
same,"viability, T/C",[41],52.1%
same,"viability, T/C",[42],33%
CNC(=O)c1ccc(N2C(=S)N(c3ccc(C#N)c(C(F)(F)F)c3)C(=O)C2(C)C)cc1F + CC(Nc1ccc2c(c1)OCCn1cc(N3C(=O)OCC3C(F)F)nc1-2)C(N)=O,IC50,[1],8.07 µM
same,IC50,[2],> 10 µM
same,IC50,[3],> 10 µM
same,IC50,[4],> 10 µM
same,IC50,[5],> 10 µM
same,IC50,[6],0.145 µM
same,"viability, T/C",[11],85.8%
same,"viability, T/C",[12],82.7%
same,"viability, T/C","second compound 0.00316 µM, first compound 0.316 µM",79.2%
same,"viability, T/C","second compound 0.00316 µM, first compound 1 µM",92%
same,"viability, T/C","second compound 0.00316 µM, first compound 3.16 µM",78.3%
same,"viability, T/C","second compound 0.00316 µM, first compound 10 µM",42.9%
same,"viability, T/C",[17],88.3%
same,"viability, T/C",[18],98.5%
same,"viability, T/C","second compound 0.01 µM, first compound 0.316 µM",95%
same,"viability, T/C","second compound 0.01 µM, first compound 1 µM",76.9%
same,"viability, T/C","second compound 0.01 µM, first compound 3.16 µM",71.2%
same,"viability, T/C","second compound 0.01 µM, first compound 10 µM",72.2%
same,"viability, T/C",[23],88.9%
same,"viability, T/C",[24],54.9%
same,"viability, T/C","second compound 0.0316 µM, first compound 0.316 µM",76%
same,"viability, T/C","second compound 0.0316 µM, first compound 1 µM",89.2%
same,"viability, T/C","second compound 0.0316 µM, first compound 3.16 µM",88.1%
same,"viability, T/C","second compound 0.0316 µM, first compound 10 µM",67.4%
same,"viability, T/C",[29],84.7%
same,"viability, T/C",[30],71.8%
same,"viability, T/C","second compound 0.1 µM, first compound 0.316 µM",94.4%
same,"viability, T/C","second compound 0.1 µM, first compound 1 µM",77.9%
same,"viability, T/C","second compound 0.1 µM, first compound 3.16 µM",69.5%
same,"viability, T/C","second compound 0.1 µM, first compound 10 µM",55.6%
same,"viability, T/C",[35],88.2%
same,"viability, T/C",[36],38%
same,"viability, T/C","second compound 0.316 µM, first compound 0.316 µM",71.2%
same,"viability, T/C","second compound 0.316 µM, first compound 1 µM",76.2%
same,"viability, T/C","second compound 0.316 µM, first compound 3.16 µM",59.1%
same,"viability, T/C","second compound 0.316 µM, first compound 10 µM",53.6%
same,"viability, T/C",[41],52.5%
same,"viability, T/C",[42],52.1%
same,"viability, T/C","second compound 1 µM, first compound 0.316 µM",42.8%
same,"viability, T/C","second compound 1 µM, first compound 1 µM",50.2%
same,"viability, T/C","second compound 1 µM, first compound 3.16 µM",43.7%
same,"viability, T/C","second compound 1 µM, first compound 10 µM",34.6%
COc1c(OCCCN2CCOCC2)ccc2c3n(c(=NC(=O)c4cnc(N)nc4)nc12)CCN3,"viability, T/C",compound 0.01 µM,84.7% [middle of 8 runs]
same,"viability, T/C",compound 0.0316 µM,93.6% [middle of 8 runs]
same,"viability, T/C",compound 0.316 µM,31.3% [middle of 8 runs]
same,"viability, T/C",compound 1 µM,11.8% [middle of 8 runs]
same,IC50,"compound alone, run of 05/09/2023",185 nM [middle of 8 runs]
CC(=O)c1c(C)c2cnc(Nc3ccc(N4CCNCC4)cn3)nc2n(C2CCCC2)c1=O + CC(Nc1ccc2c(c1)OCCn1cc(N3C(=O)OCC3C(F)F)nc1-2)C(N)=O,IC50,[1],> 0.1 µM
same,IC50,[2],> 0.1 µM
same,IC50,[3],> 0.1 µM
same,IC50,[4],> 0.1 µM
same,IC50,[5],> 0.1 µM
same,IC50,[6],> 0.1 µM
same,"viability, T/C",[7],97.3%
same,"viability, T/C",[8],83.4%
same,"viability, T/C",[9],95.7%
same,"viability, T/C",[10],73.7%
same,"viability, T/C",[11],87.8%
same,"viability, T/C",[12],74.2%
same,"viability, T/C",[13],86.4%
same,"viability, T/C",[14],87.5%
same,"viability, T/C",[15],80.9%
same,"viability, T/C",[16],89.7%
same,"viability, T/C",[17],86%
same,"viability, T/C",[18],70.6%
same,"viability, T/C",[19],88.8%
same,"viability, T/C",[20],88.4%
same,"viability, T/C",[21],76.7%
same,"viability, T/C",[22],89%
same,"viability, T/C",[23],93.2%
same,"viability, T/C",[24],71.2%
same,"viability, T/C",[25],82.6%
same,"viability, T/C",[26],84.4%
same,"viability, T/C",[27],81.2%
same,"viability, T/C",[28],101%
same,"viability, T/C",[29],90.2%
same,"viability, T/C",[30],65.2%
same,"viability, T/C",[31],83%
same,"viability, T/C",[32],79.5%
same,"viability, T/C",[33],76.9%
same,"viability, T/C",[34],67.2%
same,"viability, T/C",[35],79.3%
same,"viability, T/C",[36],59.6%
same,"viability, T/C",[37],76.7%
same,"viability, T/C",[38],68.7%
same,"viability, T/C",[39],50%
same,"viability, T/C",[40],55.3%
same,"viability, T/C",[41],60.1%
same,"viability, T/C",[42],48.9%
